Experimental findings from patent US8450266B2 (Ipsen Pharma S.A.S., priority 2008, dated 2013) are described below.

Where a SMILES comes first, the peptide text is derived from it. [ ]: non-standard residue; d: D form. The star is where a group is joined. Decanoyl = CCCCCCCCCC(=O)*; Ac6c = NC1(C(=O)O)CCCCC1; Orn = NCCC[C@H](N)C(=O)O

Data set [1] in a line: Human plasma half-life assay (LC-MS). The data set is classed as in vitro ADME. As to conditions: incubated at 37° C., read-out: Human Plasma T½ (converted). The procedure, abridged: (§1)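 Aliquots taken from human or rat plasma at time points up to 72 h, quenched with formic acid and acetonitrile, centrifuged. Supernatant analyzed by LC-MS (ESI, positive ion, full scan) on a C8 column with a water/acetonitrile 1% formic acid gradient.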

Data set [2] concerns the target T1, human recombinant GIP receptor (Homo sapiens, UniProt P48546).
T1 construct: expressed in transfected cells; host or cells: CHO-K1 clonal cells (membranes)
T1 sequence (P48546 22-466): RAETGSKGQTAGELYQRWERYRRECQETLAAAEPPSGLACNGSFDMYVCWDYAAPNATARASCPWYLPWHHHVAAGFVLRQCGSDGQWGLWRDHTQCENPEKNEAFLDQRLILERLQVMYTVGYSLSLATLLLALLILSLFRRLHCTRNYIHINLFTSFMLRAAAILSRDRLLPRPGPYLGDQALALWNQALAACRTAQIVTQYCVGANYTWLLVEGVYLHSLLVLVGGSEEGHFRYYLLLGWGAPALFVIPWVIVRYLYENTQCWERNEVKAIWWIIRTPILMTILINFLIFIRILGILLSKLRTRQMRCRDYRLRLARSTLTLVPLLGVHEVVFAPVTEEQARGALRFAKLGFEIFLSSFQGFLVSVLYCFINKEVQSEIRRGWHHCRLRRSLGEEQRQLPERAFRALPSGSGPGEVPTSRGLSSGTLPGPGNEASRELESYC
Nature of the data set: In vitro hGIP receptor binding assay ([125I]GIP displacement, CHO-K1 membranes). An excerpt: A. In Vitro hGIP Receptor Binding Assay

The nature of data set [3]: Rat plasma half-life assay (LC-MS). The data set is classed as in vitro ADME. The conditions noted are these: incubated at 37° C., read-out: Rat Plasma T½ (converted). An outline of the steps: as §1

In general, Ki refers to a dissociation constant, usually derived from enzyme kinetics or from competition with a known ligand. `CCCCCCCCCC(=O)NCCC[C@H](NC(=O)[C@H](CCCCN)NC(=O)[C@H](CCCCN)NC(=O)CNC(=O)[C@H](CCCCN)NC(=O)[C@H](CCC(N)=O)NC(=O)[C@H](C)NC(=O)[C@H](CC(C)C)NC(=O)[C@H](CC(C)C)NC(=O)[C@H](Cc1c[nH]c2ccccc12)NC(=O)[C@H](CC(N)=O)NC(=O)[C@@H](NC(=O)[C@H](Cc1ccccc1)NC(=O)[C@H](CC(=O)O)NC(=O)[C@H](CCC(N)=O)NC(=O)[C@H](CCC(N)=O)NC(=O)[C@H](Cc1c[nH]cn1)NC(=O)[C@@H](NC(=O)[C@H](CCCCN)NC(=O)[C@H](CC(=O)O)NC(=O)[C@H](CCSC)NC(=O)[C@H](C)NC(=O)[C@@H](NC(=O)[C@H](CO)NC(=O)[C@H](Cc1ccc(O)cc1)NC(=O)[C@H](CC(=O)O)NC(=O)[C@H](CO)NC(=O)C1(NC(=O)CCCCCCCCC)CCCCC1)[C@@H](C)CC)[C@@H](C)CC)C(C)C)C(=O)N[C@@H](CC(=O)O)C(=O)N[C@@H](Cc1c[nH]c2ccccc12)C(=O)N[C@@H](CCCCN)C(=O)N[C@@H](Cc1c[nH]cn1)C(=O)N[C@@H](CC(N)=O)C(=O)N[C@H](C(=O)N[C@H](C(=O)N[C@@H](CCC(N)=O)C(=O)O)[C@@H](C)O)[C@@H](C)CC` [Example 21, [CH3-(CH2)8-C(O)-A6c^7, Orn^34(N-C(O)-(CH2)8-CH3)]hGIP(7-42)-OH] (Decanoyl-[Ac6c]SDYSIAMDKIHQQDFVNWLLAQKGKK[Orn](Decanoyl)DWKHNITQ-OH): the results for the half-life at 0.1 mg/mL in data set [1] and in data set [3] were 8 h and more than 72 h, respectively. The Ki in data set [2] is 0.163 µM.
